Data set [1] relates to rats with monocrotaline induced pulmonary arterial hypertension. Kind of data set: Monocrotaline rat model for treatment of pulmonary arterial hypertension (Example 2, dosing Day 14 till Day 28). It counts as in vivo, Male Sprague-Dawley rats. To be noted: for % Inhibition of Fulton index: Hypertrophy (RV/LV + S) / inhibition at 30 mg/kg: positive control = 0.00; for inhibition at 30 mg/kg: Rattus norvegicus, po. Here is the method:
The studies were conducted for hemodynamic evaluation of desipramnine in anesthetized Sprague Dawley rats treated with monocrotaline (“MCT”) to induce pulmonary arterial hypertension. Sildenafil was used as an internal control to compare the effects of desipramine. The effects of desipramine were evaluated in rats with monocrotaline induced pulmonary arterial hypertension using sildenafil as standard care treatment. Male Sprague-Dawley rats were orally administered vehicle, desipramine (30 mg/kg, given once daily every day starting on Day 14 till Day 28), or sildenafil (100 mg/kg, given once daily every day starting on Day 14 till Day 28) (n=12 in each group). Rats received a single injection of monocrotaline (50 mg/kg, s.c.) on Study Day 1. On the twenty-eighth day following monocrotaline dosing, the rats were anesthetized with ketamine/xylazine for terminal monitoring of pulmonary and systemic arterial pressures along with heart rate.
Test Item: Vehicle (0.5% Methylcellulose+0.2% Tween 80 in deionized water. Desipramine (30 mg/kg given once daily starting on Day 14 till Day 28; Sildenafil (100 mg/kg, administered once daily starting on Day 14 till Day 28)
(§1) Route of Administration: Oral
Study Design: The study was planned and conducted according to design depicted below in Table 7
Pulmonary arterial hypertension was induced by injecting 50 mg/kg dose of monocrotaline (3 mL/Kg MCT in 50% DMSO in water) subcutaneously to all the randomized Male Sprague-Dawley rats of Groups VII, VII, IX and X (except negative control group). Negative control group (Group VI. DMSO group) received a single dose of 3 mL/kg 50% DMSO in water for injection subcutaneously. Male Sprague-Dawley rats in groups […], VII, VIII and IX and X were administered 50 mg/kg of body weight of monocrotaline in DMSO subcutaneously to induce PAH on day 1. The rats of vehicle positive control group (Group VIII) received 5 ml of vehicle every morning. The rats of desipramine group (Group IX) were orally administered desipramine (30 mg/kg given once daily starting on Day 14 till Day 28) and rats of sildenafil group (Group X) were orally administered dildenafil (100 mg/kg given once daily starting on Day 14 till Day 28). On the twenty-eighth day after monocrotaline dosing, the rats were anesthetized with ketamine/xylazine for terminal monitoring of pulmonary and systemic arterial pressures along with heart rate. It is understood that from day 1 till administration of test compounds i.e., until day 14, rates of all groups were suffering from PAH due to administration of MCT. Thus the study was conducted to evaluate the efficacy of desipramine treatment for PAH. Sildenafil was used as an internal control to compare the effects of desipramine.

For data set [2] the test system is unchanged. The experiment in a line: Monocrotaline rat model for pulmonary arterial hypertension (Example 1, dosing Day 1 to 28). It counts as in vivo, Male Sprague-Dawley rats. The method, then:
The studies were conducted for hemodynamic evaluation of desipramine in anesthetized sprague dawley rats treated with monocrotaline (“MCT”) to induce pulmonary arterial hypertension. Sildenafil was used as an internal control to compare the effects of desipramine.
The effects of Desipramine were evaluated in rats with monocrotaline induced pulmonary arterial hypertension using sildenafil as standard care treatment. Male Sprague-Dawley rats were orally administered vehicle, Desipramine (20 mg/kg given once daily every day for 28 days starting on Day 1), or sildenafil (100 mg/kg, administered once daily every day for 28 days starting on Day 1) (n=12 in each group). Rats received a single injection of monocrotaline (50 mg/kg, s.c.) on Study Day 1. On the twenty-eighth day following monocrotaline dosing, the rats were anesthetized with ketamine/xylazine for terminal monitoring of pulmonary and systemic arterial pressures along with heart rate.
Test Item: Vehicle (0.5% Methylcellulose+0.2% Tween 80 in deionized water. Desipramine (20 mg/kg given once daily for 28 days; Sildenafil (100 mg/kg administered once daily)
as §1
Study Design: The study was planned and conducted according to design depicted below in Table 1
Pulmonary arterial hypertension was induced by injecting Monocrotaline (3 mL/Kg MCT in 50% DMSO in water) subcutaneously at a dose of 50 mg/kg of body weight to all the randomized Male Sprague-Dawley rats of Groups II, III, IV and V (except negative control group). Negative control group (Group I. DMSO group) received a single dose of 3 mL/kg 50% DMSO in water for injection subcutaneously. The positive control group (Group III) received 5 ml of vehicle every morning. The rats of desipramine group (Group IV) were orally administered Desipramine (20 mg/kg given once daily for 28 days starting on Day 1) and rats of sildenafil group (Group V) were orally administered sildenafil (100 mg/kg given once daily for 28 days starting on Day 1) On the twenty-eighth day after monocrotaline dosing, the rats were anesthetized with ketamine/xylazine for terminal monitoring of pulmonary and systemic arterial pressures along with heart rate.

The conditions of data set [3]: cited from earlier work.
Setting [4] is: group mean, Desipramine 30 mg/Kg p.o. QD Day 14 till Day 28, Day 28.
The mark [5] stands for this setting: individual animals, Desipramine 30 mg/Kg p.o. QD Day 14 till Day 28, Day 28.
The mark [6] stands for this setting: group mean, Desipramine 20 mg/Kg p.o. QD Day 1-28, Day 28.
Where [7] appears, read: individual animals, Desipramine 20 mg/Kg p.o. QD Day 1-28, Day 28.

“And” between values parts separate entries of the source, which are not always exact repeats. Identical values can stand only once. Counter-ions that a name gives are not always drawn. Like-named read-outs stand apart in the source and are kept apart here.

In general, inhibition refers to the percentage by which the read-out fell short of the control.

In the case of `CNCCCN1c2ccccc2CCc2ccccc21` [Desipramine], the “% Inhibition of Fulton index: Hypertrophy (RV/LV + S)” value in data set [1] (Desipramine 30 mg/Kg p.o. QD Day 14 till Day 28) amounted to 32.07%. Moreover, in data set [1] (Desipramine 30 mg/Kg p.o. QD Day 14 till Day 28, read-out: % Inhibition of Right Ventricular Pressure (RVP)), the inhibition at 30 mg/kg was found to be 53.9%. Further, the inhibition at 30 mg/kg in data set [1] (Desipramine 30 mg/Kg p.o. QD Day 14 till Day 28, read-out: % Inhibition of Right Ventricular Systolic Pressure (RVSP)) came to 51.6%. In addition, in data set [1] (after 28 days, desipramine 30 mg/kg/day once daily, Day 14 till Day 28), the “systolic and mean pulmonary arterial pressures compared to the vehicle group” value was “differences”. The “activity in treatment of PAH compared with Sildenafil activity” value in data set [1] (desipramine 30 mg/kg vs sildenafil 100 mg/kg, Day 14 till Day 28) is recorded as “comparable”. In addition, in data set [1] (setting [4]), the “Fulton index: Hypertrophy (RV/LV + S), Mean” value (from here on “Fulton index … Mean”) is on record as 0.376; the “Right Ventricle weight, Mean” value was determined as 0.250 gms; the “Right Ventricular Pressure (RVP), Mean” value worked out at 15.796 mmHg; the “Right Ventricular Systolic Pressure (RVSP), Mean” value is given as 33.248 mmHg. In data set [1] (setting [4]), the “Right ventricle/Body weight, Mean” value was determined as 0.0007. In addition, in data set [1] (setting [5]), the “Fulton index: Hypertrophy (RV/LV + S)” value is 0.404 and 0.426 and 0.430 and 0.333 and 0.288; the “Right Ventricle weight” value is 0.252 gms and 0.274 gms and 0.340 gms and 0.205 gms and 0.181 gms; the “Right Ventricular Pressure (RVP)” value is 14.133 mmHg and 19.618 mmHg and 19.346 mmHg and 15.432 mmHg and 10.448 mmHg; the “Right ventricle/Body weight” value is 0.0008 (2×) and 0.0010 and 0.0006 and 0.0005. The “Right Ventricular Systolic Pressure (RVSP)” value in data set [1] (individual animals, Desipramine 30 mg/Kg p.o. QD Day 14 till Day 28, MCT 50 mg/kg s.c., Day 28) was 30.245 mmHg and 39.927 mmHg and 38.672 mmHg and 32.210 mmHg and 25.188 mmHg. The “systolic and mean pulmonary arterial pressures compared to the vehicle group” value in data set [2] (after 28 days, desipramine 20 mg/kg/day once daily) is “differences”. Moreover, the “activity in controlling or reducing PAH compared with Sildenafil activity” value in data set [2] (desipramine 20 mg/kg vs sildenafil 100 mg/kg, Day 1-28) is listed as “comparable”. Further, in data set [2] (setting [6]), the “Fulton index … Mean” value worked out at 0.321; the “RV/Body wt (Right Ventricle/Body Weight), Mean” value stood at 0.0007; the “Right Ventricle (RV), Mean” value is 0.200 g; the “Right Ventricular Pressure (RVP), Mean” value amounted to 16.241 mmHg. In addition, the “Right Ventricular Systolic Pressure (RVSP), Mean” value in data set [2] (group mean, Desipramine 20 mg/Kg p.o. QD Day 1-28, MCT 50 mg/kg s.c., Day 28) is reported as 33.154 mmHg. Moreover, in data set [2] (setting [7]), the “Fulton index: Hypertrophy (RV/LV + S)” value is 0.292 and 0.474 and 0.274 and 0.244 and 0.286 and 0.278 and 0.426 and 0.352 and 0.263; the “RV/Body wt (Right Ventricle/Body Weight)” value was 0.0005 (4×) and 0.0012 and 0.0006 (2×) and 0.0008 (2×); the “Right Ventricle (RV)” value is 0.171 g and 0.272 g and 0.168 g and 0.163 g and 0.169 g (2×) and 0.289 g and 0.251 g and 0.150 g; the “Right Ventricular Pressure (RVP)” value was 22.694 mmHg and 19.903 mmHg and 14.460 mmHg and 12.513 mmHg and 13.047 mmHg and 12.287 mmHg and 13.930 mmHg and 16.428 mmHg and 20.906 mmHg. Also, in data set [2] (individual animals, Desipramine 20 mg/Kg p.o. QD Day 1-28, MCT 50 mg/kg s.c., Day 28), the “Right Ventricular Systolic Pressure (RVSP)” value was 44.096 mmHg and 40.737 mmHg and 27.834 mmHg and 26.777 mmHg and 25.403 mmHg and 26.483 mmHg and 31.091 mmHg and 37.179 mmHg and 38.785 mmHg.

Turning to `CNCCCN1c2ccccc2CCc2ccccc21` [Desipramine hydrochloride], in data set [3] (following oral administration), the “time at which peak plasma concentrations are attained” value is 4 to 6 h. For the same compound, in data set [3] (in vivo), the “absorption from the gastrointestinal tract” value was “rapidly and almost completely absorbed”; the first-pass metabolism result was “extensive”.

Take `CCCc1nn(C)c2c(=O)[nH]c(-c3cc(S(=O)(=O)N4CCN(C)CC4)ccc3OCC)nc12` [Sildenafil]: the “% Inhibition of Fulton index: Hypertrophy (RV/LV + S)” value in data set [1] (Sildenafil 100 mg/Kg p.o. QD Day 14 till Day 28) is 30.70%. For the same compound, the “Fulton index … Mean” value in data set [1] (group mean, Sildenafil 100 mg/Kg p.o. QD Day 14 till Day 28, Day 28) is given as 0.384. The “Fulton index: Hypertrophy (RV/LV + S)” value in data set [1] (individual animals, Sildenafil 100 mg/Kg p.o. QD Day 14 till Day 28, Day 28) was 0.393 and 0.306 and 0.337 and 0.389 and 0.415 and 0.464. Also, the “RV/Body wt (Right Ventricle/Body Weight), Mean” value in data set [2] (group mean, Sildenafil 100 mg/kg p.o. QD Day 1-28, Day 28) was determined as 0.0006. Moreover, in data set [2] (individual animals, Sildenafil 100 mg/kg p.o. QD Day 1-28, Day 28), the “RV/Body wt (Right Ventricle/Body Weight)” value is 0.0009 and 0.0006 (4×) and 0.0007 (3×) and 0.0003.

Source of the values: patent US20240016814A1, “METHOD OF TREATING HYPERTENSION” (Cipla Limited, priority 2017, published 2024).
